row,Structure (SMILES),pKa
1,Nc1ccc(C(=O)O)cc1,4.87
2,COc1ccc2c3c1O[C@H]1[C@@H](O)C=CC4[C@@H](C2)NCC[C@@]341 (stereo partly specified),9.23
3,CCCCCCCC(=O)OC(CC(=O)O)C[N+](C)(C)C (stereo unspecified),3.6
4,CN(C)[C@@H]1C(O)=C(C(N)=O)C(=O)[C@@]2(O)C(O)=C3C(=O)c4c(O)cccc4[C@@](C)(O)C3[C@H](O)C12 (stereo partly specified),7.32
5,CCCCCCCCCC(=O)OC(CC(=O)O)C[N+](C)(C)C (stereo unspecified),3.65
6,O=C(O)c1cccnc1,2.05
7,CCCC(=O)OC(CC(=O)O)C[N+](C)(C)C (stereo unspecified),3.56

# Remark: another data set of the same source
row,Structure (SMILES),pKa
1,Cc1cccc(Nc2ccccc2C(=O)O)c1C,4.5
2,CCn1nc(C(=O)O)c(=O)c2cc3c(cc21)OCO3,4.7
3,O=C(c1ccccc1)c1ccc2n1CCC2C(=O)O (stereo unspecified),3.5
4,Cc1ccc(C(=O)c2ccc(CC(=O)O)n2C)cc1,3.5
